In article PMC8085067, “The dimer-monomer equilibrium of SARS-CoV-2 main protease is affected by small molecule inhibitors” (Scientific Reports, 2021):
“Also recorded” adds a separate entry of the source.

Molecular target: SARS-CoV-2 M^pro (Severe acute respiratory syndrome coronavirus 2, UniProt P0DTD1)
Assay: M^pro activity assay and inhibition (fluorogenic substrate)
Format: biochemical
Details: for inhibition of M^pro catalytic activity (in words) / slope m of the fluorescence inhibition curve: inhibitor 30 μM; for inhibition of M^pro catalytic activity (in words): fluorescence assay; for slope m of the fluorescence inhibition curve: ≈0.2 μM M^pro, 40 μM substrate, 30 °C, 20 min preincubation, linear fit up to 30 min

SMILES | Hill slope n (Hill equation fit of percent inhibition) | IC50 (Hill equation fit of percent inhibition vs inhibitor concentration) [µM] | inhibition of M^pro catalytic activity (in words) | slope m of the fluorescence inhibition curve
CCNC(=O)c1noc(-c2c(F)c(F)c(NCCN(CCNc3c(F)c(F)c(-c4nc(C(=O)NCC)no4)c(F)c3F)CCNc3c(F)c(F)c(-c4nc(C(=O)NCC)no4)c(F)c3F)c(F)c2F)n1 [Inhibitor 7, 5,5’,5”-(((nitrilotris(ethane-2,1-diyl))tris(azanediyl))tris(2,3,5,6-tetrafluorobenzene-4,1-diyl))tris(N-ethyl-1,2,4-oxadiazole-3-carboxamide)] | 3±1 | 15 ± 2 | irreversible inactivation of the enzyme; also recorded: promising inhibition effect | 1±3 RFU/min and ≈ 1 RFU/min
OCCN(CCOc1c(F)c(F)c(-c2nc(-c3ccncc3)no2)c(F)c1F)CCOc1c(F)c(F)c(-c2nc(-c3ccncc3)no2)c(F)c1F [Inhibitor 3] | – | – | week | 23±3 RFU/min
Fc1c(F)c(N2CCOCCOCCOCCOCCOCC2)c(F)c(F)c1-c1nc(-c2ccccc2)no1 [Inhibitor 4, 16-(2,3,5,6-tetrafluoro-4-(3-phenyl-1,2,4-oxadiazol-5-yl)phenyl)-1,4,7,10,13-pentaoxa-16-azacyclooctadecane] | – | – | irreversible inactivation of the enzyme; also recorded: most effective among the seven inhibitors | 0±6 RFU/min and ≈ 0 RFU/min
